# From patent US11464810B2, “Ascaroside treatment of eosinophilic esophagitis” (California Institute of Technology, priority 2016, dated 2022)
# Assays:
# [1] = tested on: IL-6; experiment: IL-6 secretion by bone marrow-derived dendritic cells, ELISA; assay type: cell-based, mouse; conditions: different concentrations of ascr#7
# Procedure: (§1) Bone marrow was extracted from femurs of C57BL/6 mice (6-12 weeks of age). These mice were euthanized by CO2 inhalation and their femurs were removed. After removing the remaining flesh from the bone, they were cut at the metaphysis. Bone marrow was flushed out using a syringe filled with RPMI. The extracted marrow was further broken down by resuspension with syringe. The mixture was centrifuged and the pellet was re-suspended in RPMI. […] 20 ng of GM-CSF was added to each well. At day 3, and every 3 days thereafter, the media was replaced. Cells were used for experiments between day 7-9.
# (§2) Bone marrow dendritic cells were collected between day 7-9 of culture. Cells were washed twice and counted. Ascr#7 in water or RPMI were placed in corresponding wells, and are allowed to dry. 10^6 cells were then plated in each well in a 24 well culture plate. Cells were left to incubate with ascr#7 for 5 minutes. Following the brief incubation, different TNFα was added to the wells. These bone marrow dendritic cells were then cultured at 37° C. for 18-72 hours. Cells were collected via the pellet generated by centrifuge. The supernatant was also preserved. EBioscience ELISA kits was used to determine the concentration of different cytokines present in each well.
# [2] = tested on: IL-1β; experiment: IL-1β secretion by bone marrow-derived dendritic cells, ELISA; assay type: cell-based, mouse; conditions: different concentrations of ascr#7
# Procedure: as §1, §2
# [3] = tested on: ovalbumin model of murine asthma; experiment: ovalbumin model of murine asthma; assay type: in vivo, mouse; conditions: C57BL/6 mice
# Procedure: Adult C57BL/6 mice were sensitized by administering 2 ug OVA (Sigma-Aldrich) and 1 mg alum (Thermo) with 50ng ascr#7 or saline, via intraperitoneal injection, on Day 0 and 14. On day 24, the mice were challenged with intranasal administration of saline containing 100 μg OVA, under isoflurane anesthesia. Histologic sections were stained with H&E or PAS to score for eosinophilia, goblet cell metaplasia, and airway hyper-reactivity. Mice were also placed in a computer controlled small animal ventilator (SCIREQ) to score for airway hyper-reactivity following methacholine challenge. […] Animals with asthma have higher resistance of flow, which would be represented as higher “RL” values in FIG. 3B-FIG. 3F. […] Lungs were collected, postmortem, and then sectioned and stained to show the presence of eosinophils and mucus. […] In FIG. 3G, the asthmatic mouse lung, here labeled “Asthma” has a large number of mucus and eosinophils that surround the bronchioles and occupy the alveolar space; wherein the thick barriers would prohibit oxygen from easily diffusing.
# [4] = tested on: T cell transfer model of colitis; experiment: T cell transfer model of colitis (immune dysregulation model of inflammatory bowel disease); assay type: in vivo, mouse; conditions: Rag −/− mice, 300 ng ascr#7 intraperitoneal every 3 days between day 14 and day 28
# Procedure: A T cell transfer model of colitis where 10^6 CD4+ T cells were transferred to adult Rag −/− mice was used, and either saline or 300 ng ascr#7 were administered via intraperitoneal injection every 3 days between day 14 and day 28. On day 28, the mice were euthanized and colon analysis was performed. n=3 mice per group. […] The normal mouse colon is long, skinny, and has discrete fecal pellets. The diseased mouse colon, with IBD, has a shortened, dilated colon, with diarrhea instead of discrete fecal pellets.
# [5] = 50ng ascr#7 intraperitoneal on Day 0 and 14, H&E or PAS sections
structure (smiles),measurement,setting,value
C[C@H](CC/C=C/C(=O)O)O[C@@H]1O[C@@H](C)[C@H](O)C[C@H]1O [ascr#7],IL-6 levels,"[1]; dendritic cells not stimulated with TNF-α, FIG. 1 left side",very low levels of IL-6
same,secreted IL-6 levels,"[1]; dendritic cells stimulated with TNF-α, FIG. 1 right side",reduces these levels significantly
same,IL-1β levels,"[2]; dendritic cells not stimulated with TNF-α, FIG. 2 left side",very low levels of IL-1β
same,secreted IL-1β levels,"[2]; dendritic cells stimulated with TNF-α, FIG. 2 right side",reduces these levels significantly
same,development of eosinophilia,[3]; [5],reduces the development of
same,development of goblet cell metaplasia,[3]; [5],reduces the development of
same,lung histology (eosinophils and mucus; boundaries between bronchioles and alveolar space),"[3]; 50ng ascr#7 intraperitoneal on Day 0 and 14, stained lung sections, FIG. 3G","thin boundaries between the bronchioles and the alveolar space, comparable to the normal mice"
same,"resistance of air flow (RL), airway hyper-reactivity following methacholine challenge","[3]; 50ng ascr#7 intraperitoneal on Day 0 and 14 with OVA/alum, FIG. 3B-3F","low resistance of air flow, with comparable levels to normal mice"
same,development of abnormal lumen dilation,[4],markedly reduces the development of
same,development of colon shortening,[4],markedly reduces the development of
same,development of diarrhea,[4],markedly reduces the development of
same,"colon appearance (length, dilation, fecal pellets)","[4]; colon analysis day 28, FIG. 4","normal appearing colon, which is long, skinny, and contains discrete fecal pellets"
